{
  "source": "patent US20220111055A1",
  "about": "“MODIFIED HYDROPHOBIC EXCIPIENT AND PREPARATION METHOD THEREOF” (ZHEJIANG ZHIDA PHARMACEUTICAL CO., LTD., priority 2019, published 2022)",
  "assay": "Solubility of paclitaxel in olive oil, castor oil and hydrophobic excipients (crystal formation in dried sample)",
  "format": "physicochemical",
  "details": "for solubility of paclitaxel (crystal formation in the dried sample): 0.5 ml paclitaxel chloroform solution (10 mg/ml), volatilized overnight",
  "protocol": "The specific experimental method was as follows. […] The chloroform solution was mixed with 0.5 ml of chloroform, from which 0.5 ml of diluent was taken and two-fold serial dilution was performed by using chloroform. Then 0.5 ml of a chloroform solution of paclitaxel (10 mg/ml) was added to the above-mentioned sample after the two-fold serial dilution, and then left in a hood to be naturally volatilized overnight. Crystal formation in the dried sample was observed and recorded.",
  "data": [
    {"smiles": "CCCCCCCC/C=C\\CCCCCCCCNC(=O)CC[C@@H](C)[C@H]1CC[C@H]2[C@@H]3[C@H](OC(=O)CNC(=O)[C@H](CCCCNC(=O)OC(C)(C)C)NC(=O)OCC4c5ccccc5-c5ccccc54)C[C@@H]4C[C@H](OC(=O)CNC(=O)[C@H](CCCCNC(=O)OC(C)(C)C)NC(=O)OCC5c6ccccc6-c6ccccc65)CC[C@]4(C)[C@H]3C[C@H](OC(=O)CNC(=O)[C@H](CCCCNC(=O)OC(C)(C)C)NC(=O)OCC3c4ccccc4-c4ccccc43)[C@]12C", "note": "[Example 4]", "values": [
      {"measurement": "solubility of paclitaxel (crystal formation in the dried sample)", "setting": "0.98 mg hydrophobic excipient", "result": "+"},
      {"measurement": "solubility of paclitaxel (crystal formation in the dried sample)", "setting": "1.95 mg hydrophobic excipient", "result": "+"},
      {"measurement": "solubility of paclitaxel (crystal formation in the dried sample)", "setting": "3.90 mg hydrophobic excipient", "result": "+"},
      {"measurement": "solubility of paclitaxel (crystal formation in the dried sample)", "setting": "7.81 mg hydrophobic excipient", "result": "+/−"},
      {"measurement": "solubility of paclitaxel (crystal formation in the dried sample)", "setting": "15.65 mg hydrophobic excipient", "result": "−"},
      {"measurement": "solubility of paclitaxel (crystal formation in the dried sample)", "setting": "31.30 mg hydrophobic excipient", "result": "−"},
      {"measurement": "solubility of paclitaxel (crystal formation in the dried sample)", "setting": "62.50 mg hydrophobic excipient", "result": "−"},
      {"measurement": "solubility of paclitaxel (crystal formation in the dried sample)", "setting": "125.00 mg hydrophobic excipient", "result": "−"},
      {"measurement": "solubility of paclitaxel (crystal formation in the dried sample)", "setting": "250.00 mg hydrophobic excipient", "result": "−"},
      {"measurement": "solubility of paclitaxel in the excipient, comparison in words", "setting": "compared with olive oil and castor oil, from Table 1", "result": "greater than that in olive oil and castor oil"}
    ]}
  ]
}
